# Test system: known peptide deformylases
# Experiment: not given
# Conditions: Rajagopalan et al., Biochemistry 1997; cited from earlier work
row,Compound,deformylase activity of known peptide deformylases towards the substrate
1,CSCC[C@H](NC=O)C(=O)O [N-formylmethionine],no or little activity

# Molecular target: T1, PDF(Fe) (peptide deformylase) (Escherichia coli, UniProt P0A6K3)
# T1 construct: made in house; host or cells: overproducing E. coli cells
# Experiment: Enantioselective enzymatic deformylation of N-formyl compounds by PDF(Fe), HPLC analysis
# Type: biochemical, E. coli
# Conditions: Method A: 100 mM MOPS/NaOH, 2 M Li2SO4, pH 7.2, 37° C.
# Procedure: PDF(Fe) was isolated from overproducing E. coli cells grown at 30° C. in 1.6 l TB medium for 14–16 h. About 13 g (wet weight) cell paste were suspended in 26 ml buffer (20 mM Hepes/KOH, 100 mM KF, pH 7.7 supplemented with 10 μg/ml catalase from bovine liver (Boehringer Mannheim) and 1 mM AEBSF, disintegrated by sonication (Branson B12, 20 min) at 0° C. and centrifuged at 200.000 g for 1 h. The clear supernatant (1.3 g of protein; according to biurete reaction) was mixed with 1.3 ml 10% (w/v) Polymin G-35 (BASF) adjusted to pH 7.7 and centrifuged at 40.000 g for 10 min. The supernatant was applied to a 20 ml Met-Lys-Sepharose column that had been equilibrated with 20 mM Hepes/KOH, 100 mM KF, 0.2 mM TCEP, pH 7.7. After washing with 120 ml of 20 mM Hepes/KOH, 100 mM KF, 0.2 mM TCEP, pH 7.7, PDF(Fe) was eluted with 150 ml 20 mM Hepes/KOH, 100 mM KCl, 0.2 mM TCEP, pH 7.7. The protein containing fractions were concentrated by ultrafiltration using an Amicon PM10 membrane (yield: 140 mg protein, 1400 U/mg; determined according to Groche et al.). After adjustment of the TCEP concentration to 1 mM and protein concentration to 40 mg/ml, the PDF(Fe) stock solution (40 mg/ml=2 mM) was stored frozen at −60° C. After thawing, the PDF(Fe) stock solution could be used directly in the deformylation experiments described below. If however solutions with lower PDF(Fe) concentrations were required for these deformylation experiments, the PDF stock solution was diluted further in 20 mM Hepes/KOH, pH 7.7, 100 mM KCl, 1 mg/ml bovine serum albumin, 10 μg/ml catalase solution.
# In all cases HPLC conditions had to be developed in which the two deformylated isomers were separated from each other and from the formylated isomers. To this end two different techniques were applied that is method 1 and method 2, as described below.
# From the quantities of deformylated isomers in the samples after various reaction times, both the initial deformylation rate constant (kf and ks in M^−1s^−1) could be calculated for both enantiomers, as well as the respective ee values. The enantioselectivity of the enzyme (E value) was calculated by taking the ratio of kf/ks and is given for all Examples in table 1, as well as the maximum ee value (eemax) observed during the experiments.
# A Crownpak CR(+) column (4×150 mm) was used. Samples (5 μl) withdrawn from the deformylation mixture were mixed with 95 μl aqueous HClO4 (10 mM) to inactivate PDF(Fe). Following a brief centrifugation, 20 μl of the supernatant were applied to the Crownpak CR(+) column. For specific chromatographic conditions and retention times see table 2.
# Method 2 (Precolumn derivatization with o-phthaldialdehyde (OPA) and N-acetyl-L-cysteine (NAC). Samples (25 μl) withdrawn from the deformylation mixture were mixed with 25 μl aqueous HClO4 (100 mM) to inactivate PDF(Fe). Following a brief centrifugation, 40 μl of the supernatant were added to 80 μl 1 M aqueous H3BO3/NaOH pH 9.4, subsequently 20 μl OPA reagent (consisting of OPA in H2O/CH3OH 1:1 v/v with a concentration as indicated in table 3) and 20 μl NAC reagent (consisting of NAC in H2O/CH3OH 1:1 v/v with a concentration as indicated in table 3) was added. After the time indicated in table 3 derivatization was terminated by addition of 80 μl (250 mM) aqueous H3PO4, and 20 μl of the solution were instantaneously applied to a Nucleosil 120-5 C18 (250×4 mm) column. Temperature was always ambient and detection was spectrophotometric using a wavelength of 257 nm and/or 340 nm. The used eluent was a mixture of aqueous 0.05 M H3PO4 brought at pH 7.0 with 1 M NaOH, and a percentage of acetonitrile as indicated in table 3. For derivatization of valine aminonitrile borate buffer was adjusted to pH 11 and addition of NAC reagent was done 10 min after OPA reagent had been added. Concentration of H3PO4 used for termination was 500 mM. Derivatization and separation conditions as well as the observed retention times for the deformylated compounds analyzed are compiled in table 3. […]
# T1 sequence (P0A6K3 whole entry): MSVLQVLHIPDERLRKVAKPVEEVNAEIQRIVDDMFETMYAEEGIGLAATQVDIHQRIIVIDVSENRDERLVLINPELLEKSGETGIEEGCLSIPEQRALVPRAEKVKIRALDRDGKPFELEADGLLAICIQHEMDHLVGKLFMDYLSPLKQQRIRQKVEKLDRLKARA
Compound,kf (rate of deformylation of the most rapidly deformylated enantiomer),ks (rate of deformylation of the least rapidly deformylated enantiomer) [M⁻¹ s⁻¹],"E (enantioselectivity, kf/ks)",eemax (maximum ee value observed)
"O=CN1CCC[C@H]1C(=O)O [Comparative Experiment B, N-formyl-proline, reference compound]","<0,004 M^−1s^−1",<0.004,–,–
"O=CNC(CO)c1ccccc1 (stereo not drawn) [Example 6, N-formyl-phenylglycinol]","6,3 M^−1s^−1",0.34,"18,5","93,3%"
"C[C@@H](CO)NC=O [Example 8, N-formyl-alaninol]","0,22 M^−1s^−1",0.018,12,"85,6%"
"CC(C)C(C#N)NC=O (stereo not drawn) [Example 10, N-formyl-valine aminonitrile]","29,7 M^−1s^−1",0.62,"47,9","95,5%"
"CC(NC=O)c1cccc2ccccc12 (stereo not drawn) [Example 12, N-formyl-1-(1-naphthyl)-ethylamine]","0,45 M^−1s^−1",0.03,15,90%
"N-acetyl-phenylglycine amide [Comparative Experiment A, reference compound]","<0,001 M^−1s^−1",<0.001,–,–

# Same assay, conditions: Method B: absence of Li2SO4, 100 mM MOPS/NaOH, 250 mM NaCl, 0.1 mg/ml catalase, pH 7.2, 37° C.
Compound,"E (enantioselectivity, kf/ks)",eemax (maximum ee value observed),kf (rate of deformylation of the most rapidly deformylated enantiomer),ks (rate of deformylation of the least rapidly deformylated enantiomer) [M⁻¹ s⁻¹]
"O=CNC(C(=O)O)c1ccccc1 (stereo not drawn) [Example 1, N-formyl-phenylglycine]",2255,"99,6%","10,6 M^−1s^−1",0.0047
"O=CNC(CC(=O)O)c1ccccc1 (stereo not drawn) [Example 2, N-formyl-3-amino-3-phenyl-propionic acid]",>1775,100%,"7,1 M^−1s^−1",<0.004
"O=CNC(CO)c1ccccc1 (stereo not drawn) [Example 6, N-formyl-phenylglycinol]","23,8","90,5%","0,69 M^−1s^−1",0.029
"COc1cccc(CC(C#N)NC=O)c1 (stereo not drawn) [Example 11, N-formyl-m-methoxy-phenylalanine aminonitrile]",685,"99,0%",1370 M⁻¹ s⁻¹,2

# Same assay, conditions: Method C: absence of Li2SO4, 100 mM MES/NaOH, pH 6.2, 37° C.
Compound,"E (enantioselectivity, kf/ks)",eemax (maximum ee value observed),kf (rate of deformylation of the most rapidly deformylated enantiomer) [M⁻¹ s⁻¹],ks (rate of deformylation of the least rapidly deformylated enantiomer) [M⁻¹ s⁻¹]
"N#CC(Cc1ccccc1)NC=O (stereo not drawn) [Example 9, N-formyl-phenylalanine aminonitrile]",880,"98,8%",880,1

# Test system: L-aminoacylases
# Experiment: not given
# Conditions: U.S. Pat. No. 4,745,067; cited from earlier work
row,Compound,activity of L-aminoacylases towards the substrate
1,CSCC[C@H](NC=O)C(=O)O [N-formyl-L-methionine],low

# — patent US7018817B1, “Process for the preparation of compounds with enhanced optical purity” (DSM IP Assets B.V., priority 1998, dated 2006)
